One test concerns the target T1, bovine trypsin (Bos taurus, UniProt P00760).
T1 sequence (P00760 24-246): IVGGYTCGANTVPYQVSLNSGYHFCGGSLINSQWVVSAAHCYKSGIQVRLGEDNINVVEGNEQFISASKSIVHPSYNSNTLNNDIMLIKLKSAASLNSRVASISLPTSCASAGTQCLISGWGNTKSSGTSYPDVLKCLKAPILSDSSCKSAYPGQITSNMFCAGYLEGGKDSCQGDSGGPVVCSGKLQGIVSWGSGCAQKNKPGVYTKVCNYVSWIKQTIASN
The test can be described thus: Inactivation rate of bovine trypsin, incubation method. The class given is biochemical. To be noted: for kobs /[I] bovine trypsin: Table II, 0.13 μM trypsin, 0.25-42 μM inhibitor, 80 mM Hepes pH 7.5, 1 mM CaCl2, 8% DMSO, 25° C., NI = no inhibition. The protocol:
(§1) Inactivation rates of serine proteases by aryl diesters of peptidyl derivatives of α-aminoalkylphosphonates were measured by the incubation method. An aliquot of inhibitor (25 or 50 μl) in Me2 SO was added to a buffered enzyme solution (0.01-2.3 μM) to initiate the inactivation. Aliquots (50 μl) were withdrawn at various intervals and the residual enzymatic activity was measured. Me2 SO concentration in the reaction mixture was 8-12% (v/v). A 0.1 M HEPES, 0.01 M CaCl2, pH 7.5 buffer was utilized for trypsin and trypsin-like enzymes. A 0.1 M HEPES, 0.5 M NaCl, pH 7.5, was utilized for the other serine proteases. Peptide thioesters or peptide nitroanilides with the appropriate sequences were used as substrates for various serine proteases. All peptide thioesters hydrolysis rates were measured with the assay mixture containing 4,4'-dithiodipyridine {ε324 =19800 M^-1 cm^-1; Grasetti & Murray, Arch. Biochem. Biophys. 1967, 119, 41-48}. Peptide 4-nitroanilide hydrolysis was measured at 410 nm {ε410 =8800 M^-1 cm^-1; Erlanger et al., Arch. Biochem. Biophys. 1961, 95, 271-278}. First order inactivation rate constants (Kobs) were obtained from plots of In vt /vo vs time, and the correlation coefficients were greater then 0.98.
^a Inhibition constants were measured in 0.1M Hepes, 0.01M CaCl2
pH 7.5 for trypsin, granzymes A, and K, and in 0.1M Hepes, 10% glycerol,
10 mM heparin, pH 7.5 for mast cell tryptase, and at 25° C. The
reaction mixtures contained 2% DMSO for trypsin, 7.6% for granzyme A, and
7.1% for granzyme K and tryptase. The substrate was Z--Arg--SBzl for
granzymes and trypsin, and Z--Arg--SBzl or Z--Lys--SBzl for tryptase in
the presence of DTNB. The inhibitor # concentration ranged from 0.001 to
^b NI, no inhibition after 25 min of incubation with enzyme.
(§2) ^a Enzyme was incubated with the inhibitor in 250 μL of the proper
(§3) buffer at 25° C. Specifically, the inhibition reation mixtures wer
composed of: 0.13 μM trypsin, 0.25-42 μM inhibitor in an 80 mM
(§4) Hepes, pH 7.5 buffer containing 1 mM CaCl2 and 8% DMSO; 0.07 μM
(§5) DMSO. Aliquots of 25 μL were withdrawn at various intervals and the
(§6) residual enzymatic activity was measured as described in experimental
(§7) section. The kobs values were calculated from pseudofirst-order
(§8) ^a Enzyme (0.06-0.5 μM) was incubated with the inhibitor (0.25-42
(§9) μM) in 250 μL of the proper buffer containing 9% DMSO at 25°
(§10) C. The final inhibition reaction mixtures are given in the footnote to
(§11) Table 1. Aliquots of 25 μL were withdrawn at various intervals and the […]

The next test has as its target T2, human thrombin (Homo sapiens, UniProt P00734).
T2 construct: bovine trypsin, human thrombin
The class given is biochemical. To be noted: Table II; for kobs /[I] human thrombin: 0.07 μM thrombin, 0.25-42 μM inhibitor, 80 mM Hepes pH 7.5, 428 mM NaCl, 8% DMSO, 25° C., NI = no inhibition. The protocol: as §1, with “271-278}.” for “271-278}. First order inactivation rate constants (Kobs) were obtained from plots of In vt /vo vs time, and the correlation coefficients were greater then 0.98.”
as §2, §3, §4
thrombin, 0.25-42 μM inhibitor in an 80 mM Hepes, pH 7.5 buffer
containing 428 mM NaCl and 8% DMSO; 0.07 μM tryptase, 20-66 μM
as §5, §6, §7, §8, §9, §10, §11

As for `COP(=O)(Oc1ccccc1)C(NC(=O)OCc1ccccc1)c1ccc(C(=N)N)cc1.Cl` (centres unmarked) [Cbz-(4-AmPhGly)^P (OPh)(OMe), Methyl Phenyl N-Benzyloxycarbonylamino-(4-amidinophenyl)methanephosphonate Hydrochloride], the “kobs /[I] bovine trypsin” value at bovine trypsin was determined as 83 M⁻¹ s⁻¹. For the same molecule, the “kobs /[I] human thrombin” value on human thrombin was found to be 41 M⁻¹ s⁻¹.

Turning to `N=C(N)c1ccc(C(NC(=O)CNC(=O)OCc2ccccc2)P(=O)(Oc2ccccc2)Oc2ccccc2)cc1` (centres unmarked) [Cbz--Gly-(4-AmPhGly)^P (OPh)2], on bovine trypsin, the “kobs /[I] bovine trypsin” value was found to be 195 ± 9 M⁻¹ s⁻¹. The “kobs /[I] human thrombin” value on human thrombin was 24 ± 3 M⁻¹ s⁻¹.

Consider `CC(C)CC(NC(=O)OC(C)(C)C)C(=O)NC(C(=O)NC(c1ccc(C(=N)N)cc1)P(=O)(Oc1ccccc1)Oc1ccccc1)C(C)O` (mixture of isomers) [Boc--Leu--Thr-(4-AmPhGly)^P (OPh)2], for which, at bovine trypsin, the “kobs /[I] bovine trypsin” value stood at 35 ± 6 M⁻¹ s⁻¹. Besides, the “kobs /[I] human thrombin” value on human thrombin was found to be 75 ± 1 M⁻¹ s⁻¹.

Take `CC(C)CC(NC(=O)OC(C)(C)C)C(=O)NC(CO)C(=O)NC(c1ccc(C(=N)N)cc1)P(=O)(Oc1ccccc1)Oc1ccccc1` (mixture of isomers) [Boc--Leu--Ser-(4-AmPhGly)^P (OPh)2]: at bovine trypsin, the “kobs /[I] bovine trypsin” value turned out to be 177 ± 2 M⁻¹ s⁻¹. Further, at human thrombin, the “kobs /[I] human thrombin” value stood at 97 ± 2 M⁻¹ s⁻¹.

As to `CC(C)CC(N)C(=O)NC(C(=O)NC(c1ccc(C(=N)N)cc1)P(=O)(Oc1ccccc1)Oc1ccccc1)C(C)O` (mixture of isomers) [Leu--Thr-(4-AmPhGly)^P (OPh)2], the “kobs /[I] bovine trypsin” value at bovine trypsin was found to be 24.5 ± 0.0 M⁻¹ s⁻¹. For the same molecule, at human thrombin, the “kobs /[I] human thrombin” value amounted to 58 ± 3 M⁻¹ s⁻¹.

As to `Cl.N=C(N)c1ccc(C(NC(=O)OCc2ccccc2)P(=O)(Oc2ccccc2)Oc2ccccc2)cc1` (centres unmarked) [Cbz-(4-AmPhGly)^P (OPh)2, Diphenyl N-benzyloxycarbonylamino(4-amidinophenyl)methanephosphonate hydrochloride], the “kobsd /[I] bovine trypsin” value on bovine trypsin (Table I, 0.1M Hepes, 0.01M CaCl2 pH 7.5, 25° C., 2% DMSO, substrate Z--Arg--SBzl, NI = no inhibition after 25 min) amounted to 2000 M⁻¹ s⁻¹. Also, the “kobs /[I] bovine trypsin” value at bovine trypsin came out at 170 M⁻¹ s⁻¹. On human thrombin, the “kobs /[I] human thrombin” value turned out to be 80 M⁻¹ s⁻¹.

Turning to `N=C(N)c1ccc(C(NC(=O)C(Cc2c[nH]c3ccccc23)NC(=O)OCc2ccccc2)P(=O)(Oc2ccccc2)Oc2ccccc2)cc1` (mixture of isomers) [Cbz--Trp-(4-AmPhGly)^P (OPh)2], at bovine trypsin, the “kobs /[I] bovine trypsin” value was found to be 0.6 M⁻¹ s⁻¹. Besides, the “kobs /[I] human thrombin” value at human thrombin turned out to be 1.2 ± 0.0 M⁻¹ s⁻¹.

Consider `Cc1ccc(S(=O)(=O)NC(c2ccc(C(=N)N)cc2)P(=O)(Oc2ccccc2)Oc2ccccc2)cc1` (racemic) [Tolyl-SO2-(4-AmPhGly)^P (OPh)2], for which, on bovine trypsin, the “kobs /[I] bovine trypsin” value amounted to 35 ± 6 M⁻¹ s⁻¹. For the same molecule, the “kobs /[I] human thrombin” value at human thrombin stood at 94 ± 26 M⁻¹ s⁻¹.

`CC(C)CC(NC(=O)C(CC(N)=O)NC(=O)OC(C)(C)C)C(=O)NC(C(=O)NC(c1ccc(C(=N)N)cc1)P(=O)(Oc1ccccc1)Oc1ccccc1)C(C)O` (mixture of isomers) [Boc--Asn--Leu--Thr-(4-AmPhGly)^P (OPh)2]: the “kobs /[I] bovine trypsin” value on bovine trypsin was 18 ± 2 M⁻¹ s⁻¹. Moreover, at human thrombin, the “kobs /[I] human thrombin” value was 46 ± 6 M⁻¹ s⁻¹.

For the molecule `Cl.N=C(N)c1cccc(C(NC(=O)OCc2ccccc2)P(=O)(Oc2ccccc2)Oc2ccccc2)c1` (centres unmarked) [Cbz-(3-AmPhGly)^P (OPh)2, Diphenyl N-Benzyloxycarbonylamino-(3-amidinophenyl)methanephosphonate Hydrochloride], the “% Inh human thrombin” value at human thrombin (printed in the kobs/[I] column) stood at 50%.

Consider `CC(C)C(NC(=O)C(Cc1ccccc1)NC(=O)OC(C)(C)C)C(=O)NC(c1ccc(C(=N)N)cc1)P(=O)(Oc1ccccc1)Oc1ccccc1` (mixture of isomers) [Boc--D--Phe--Val-(4-AmPhGly)^P (OPh)2], for which, at bovine trypsin, the “kobs /[I] bovine trypsin” value is 30 ± 2 M⁻¹ s⁻¹. Moreover, the “kobs /[I] human thrombin” value at human thrombin amounted to 63 ± 4 M⁻¹ s⁻¹.

Take `Cl.N=C(N)c1ccc(C(NC(=O)OCc2ccccc2)P(=O)(O)Oc2ccccc2)cc1` (centres unmarked) [Cbz-(4-AmPhGly)^P (OPh)(OH), Phenyl Hydrogen N-Benzyloxycarbonylamino-(4-amidinophenyl)methanephosphonate Hydrochloride]: on bovine trypsin, the “kobs /[I] bovine trypsin” value was determined as 0.3 M⁻¹ s⁻¹.

These data come from patent US5952307A, “Basic α-aminoalkylphosphonate derivatives” (priority 1997, dated 1999).
